Common to all, as to settings: Homo sapiens
Assay [1] relates to MT4. As to the kind of experiment: Inhibition of proliferation of MT-4 cells.
For assay [2], the system named is HuT78. As to the kind of experiment: Inhibition of proliferation of HUT78 cells.
Assay [3] has as its system MT4. As to the kind of experiment: Compound was evaluated for inhibition of proliferation of MT-4 cells (in vitro).
Assay [4] relates to HuT78. Description: Compound was evaluated for inhibition of proliferation of HUT78 cells (in vitro).
In assay [5] the test system is MT4. As to the kind of experiment: Compound was evaluated for inhibition of proliferation of MT-4 cells(in vitro).

Structures are written as SMILES. In brackets after ≈: the same amount, converted by molar mass.

Turning to `C/C(=N\N=C(\N)S)c1cnccn1`, the IC50 was found to be 0.95 µg/mL (≈ 4.87 µM) in assay [1] and 1.39 µg/mL (≈ 7.12 µM) in assay [2].

Take `CC/C(=N\N=C(/S)N1CCCCCC1)c1cccnn1`: the IC50 in assay [1] came out at 0.039 µg/mL (≈ 0.134 µM); in assay [2], 0.073 µg/mL (≈ 0.25 µM).

For `CC/C(=N\N=C(/S)N1CCCC1)c1cccnn1`, the IC50 in assay [1] came to 0.016 µg/mL (≈ 0.0608 µM); in assay [2] it was 0.052 µg/mL (≈ 0.197 µM).

As for `C/C(=N\N=C(/S)N(C)C)c1ccc(C)nn1`, the figures for the IC50 in assay [1] and in assay [2] were 0.12 µg/mL (≈ 0.506 µM) and 0.088 µg/mL (≈ 0.371 µM), respectively.

For `C/N=C(\S)N/N=C(\C)c1ccncn1`, the IC50 in assay [1] was 0.02 µg/mL (≈ 0.0956 µM); in assay [2], 0.022 µg/mL (≈ 0.105 µM).

As to `C=CCN/C(S)=N/N=C(\C)c1cccnn1`, the figures for the IC50 in assay [1] and in assay [2] were 1.28 µg/mL (≈ 5.44 µM) and 2.65 µg/mL (≈ 11.3 µM), respectively.

For `C/C(=N\N=C(\N)S)c1ccncn1`, the values for the IC50 in assay [1] and in assay [2] were 0.14 µg/mL (≈ 0.717 µM) and 0.82 µg/mL (≈ 4.2 µM), respectively.

Take `C/N=C(\S)N/N=C(\C)c1ccc(C)nn1`: the IC50 stood at 1.52 µg/mL (≈ 6.81 µM) in assay [1] and 2.15 µg/mL (≈ 9.63 µM) in assay [2].

With `C/C(=N\N=C(\N)S)c1ccc(C)nn1`, the IC50 is 1.49 µg/mL (≈ 7.12 µM) in assay [1] and 1.58 µg/mL (≈ 7.55 µM) in assay [2].

`N/C(S)=N/N=C/c1cccnn1`: the results for the IC50 in assay [1] and in assay [2] were 2.18 µg/mL (≈ 12 µM) and 4.21 µg/mL (≈ 23.2 µM), respectively.

On to `C/C(=N\N=C(/S)N1CCCC1)c1ccncn1`, for which the IC50 worked out at 0.00026 µg/mL (≈ 0.00104 µM) in assay [1] and 0.00031 µg/mL (≈ 0.00124 µM) in assay [2].

For the compound `C/C(=N\N=C(/S)N1CCCCCC1)c1ccncn1`, the results for the IC50 in assay [1] and in assay [2] were 0.016 µg/mL (≈ 0.0577 µM) and 0.0022 µg/mL (≈ 0.00793 µM), respectively.

Regarding `CN(C)/C(S)=N/N=C/c1cccnn1`, the IC50 in assay [1] and in assay [2] was 0.11 µg/mL (≈ 0.526 µM) in each case.

For `C/N=C(\S)N/N=C/c1cccnn1`, the IC50 is 2.42 µg/mL (≈ 12.4 µM) in assay [1] and 4.52 µg/mL (≈ 23.1 µM) in assay [2].

Regarding `C/N=C(\S)N/N=C(\C)c1cccnn1`, the IC50 in assay [1] was 1.62 µg/mL (≈ 7.74 µM); in assay [2], 1.86 µg/mL (≈ 8.89 µM).

Regarding `C/N=C(\S)N/N=C(\C)c1cnccn1`, the IC50 in assay [1] is 0.46 µg/mL (≈ 2.2 µM); in assay [2] it was 0.88 µg/mL (≈ 4.2 µM).

Regarding `C/C(=N\N=C(/S)N(C)C)c1ccncn1`, the IC50 in assay [1] worked out at 0.00049 µg/mL (≈ 0.00219 µM); in assay [2] it was 0.00065 µg/mL (≈ 0.00291 µM).

Turning to `C/C(=N\N=C(/S)NCc1ccccn1)c1cccnn1`, the IC50 turned out to be 0.87 µg/mL (≈ 3.04 µM) in assay [1] and 2.01 µg/mL (≈ 7.02 µM) in assay [2].

With `C=CCNC(=S)N/N=C/c1cccnn1`, the figures for the IC50 in assay [1] and in assay [2] were 3.1 µg/mL (≈ 14 µM) and 6.22 µg/mL (≈ 28.1 µM), respectively.

Turning to `CC(N/N=C(\S)N1CCCC1)c1cccnn1` (stereo not drawn), the half-inhibitory concentration (IC50) worked out at 0.016 µg/mL (≈ 0.0637 µM) in assay [1] and 0.068 µg/mL (≈ 0.271 µM) in assay [2].

Take `C/C(=N\N=C(/S)NCc1ccccn1)c1ccc(C)nn1`: the IC50 in assay [1] came to 1.64 µg/mL (≈ 5.46 µM); in assay [2], 2.82 µg/mL (≈ 9.39 µM).

Take `C/C(=N\NC(=S)N(C)C)c1cnccn1`: the IC50 in assay [1] is 0.00045 µg/mL (≈ 0.00202 µM); in assay [2] it was 0.00062 µg/mL (≈ 0.00278 µM).

With `C/C(=N\NC(=S)N1CCCC1)c1cnccn1`, the IC50 worked out at 0.00019 µg/mL (≈ 0.000762 µM) in assay [1] and 0.00049 µg/mL (≈ 0.00197 µM) in assay [2].

Regarding `C/C(=N\NC(=S)N(C)C)c1ccccn1`, the IC50 came out at 0.00011 µg/mL (≈ 0.000495 µM) in assay [3] and 0.00055 µg/mL (≈ 0.00247 µM) in assay [4].

Take `CC/C(=N\N=C(/S)N1CCCCC1)c1cccnn1`: the half-inhibitory concentration (IC50) in assay [1] was 0.03 µg/mL (≈ 0.108 µM); in assay [2], 0.071 µg/mL (≈ 0.256 µM).

Take `C/C(=N\N=C(/S)N1CCCCCC1)c1cnccn1`: the IC50 came out at 0.0059 µg/mL (≈ 0.0213 µM) in assay [1] and 0.0083 µg/mL (≈ 0.0299 µM) in assay [2].

As for `C/C(=N\N=C(/S)N1CCCCC1)c1ccncn1`, the IC50 came to 0.0013 µg/mL (≈ 0.00494 µM) in assay [1] and 0.0037 µg/mL (≈ 0.014 µM) in assay [2].

As for `CC(N/N=C(\S)N1CCCCCC1)c1cccnn1` (stereo not drawn), the IC50 in assay [1] worked out at 0.028 µg/mL (≈ 0.1 µM); in assay [2] it was 0.04 µg/mL (≈ 0.143 µM).

On to `C/C(=N\N=C(\N)S)c1cccnn1`, for which the IC50 is 1.13 µg/mL (≈ 5.79 µM) in assay [1] and 0.99 µg/mL (≈ 5.07 µM) in assay [2].

`C/C(=N\N=C(/S)N1CCCC1)c1ccc(C)nn1`: the IC50 turned out to be 0.036 µg/mL (≈ 0.137 µM) in assay [1] and 0.073 µg/mL (≈ 0.277 µM) in assay [2].

With `CCC/C(=N\N=C(/S)N1CCCC1)c1cccnn1`, the IC50 in assay [1] stood at 0.036 µg/mL (≈ 0.13 µM); in assay [2], 0.068 µg/mL (≈ 0.245 µM).

As for `CC(N/N=C(\S)N1CC2CCC(CC2)C1)c1cccnn1` (stereo not drawn), the results for the IC50 in assay [1] and in assay [2] were 0.034 µg/mL (≈ 0.111 µM) and 0.038 µg/mL (≈ 0.124 µM), respectively.

`CCC/C(=N\N=C(/S)N1CCCCC1)c1cccnn1`: the IC50 was 0.0012 µg/mL (≈ 0.00412 µM) in assay [1] and 0.0023 µg/mL (≈ 0.00789 µM) in assay [2].

As to `C=CCN/C(S)=N/N=C(\C)c1ccncn1`, the figures for the IC50 in assay [1] and in assay [2] were 0.081 µg/mL (≈ 0.344 µM) and 0.031 µg/mL (≈ 0.132 µM), respectively.

Consider `C/C(=N\N=C(/S)NCc1ccccn1)c1ccncn1`, for which the IC50 in assay [1] came to 0.018 µg/mL (≈ 0.0629 µM); in assay [2] it was 0.24 µg/mL (≈ 0.838 µM).

Regarding `C/C(=N\N=C(/S)NCc1ccccn1)c1cnccn1`, the IC50 in assay [1] was found to be 0.041 µg/mL (≈ 0.143 µM); in assay [2], 1.11 µg/mL (≈ 3.88 µM).

On to `C/C(=N\N=C(/S)N(C)C)c1cccnn1`, for which the IC50 turned out to be 0.1 µg/mL (≈ 0.448 µM) in assay [1] and 0.079 µg/mL (≈ 0.354 µM) in assay [2].

For `CCC/C(=N\N=C(/S)N1CC2CCC(CC2)C1)c1cccnn1`, the IC50 in assay [1] was determined as 0.084 µg/mL (≈ 0.253 µM); in assay [2], 0.062 µg/mL (≈ 0.187 µM).

Consider `C=CCN/C(S)=N/N=C(\C)c1ccc(C)nn1`, for which the figures for the concentration for half-maximal inhibition (IC50) in assay [1] and in assay [2] were 1.47 µg/mL (≈ 5.9 µM) and 2.81 µg/mL (≈ 11.3 µM), respectively.

With `C/C(=N\N=C(/S)N1CCCCCC1)c1ccc(C)nn1`, the IC50 came to 0.028 µg/mL (≈ 0.0961 µM) in assay [1] and 0.054 µg/mL (≈ 0.185 µM) in assay [2].

As for `C=CCN/C(S)=N/N=C(\C)c1cnccn1`, the IC50 in assay [1] came out at 0.014 µg/mL (≈ 0.0595 µM); in assay [2] it was 0.036 µg/mL (≈ 0.153 µM).

For `C/C(=N\NC(=S)N1CCCCC1)c1cnccn1`, the IC50 stood at 0.00055 µg/mL (≈ 0.00209 µM) in assay [1] and 0.00052 µg/mL (≈ 0.00197 µM) in assay [2].

Regarding `S=C(NCc1ccccn1)N/N=C/c1cccnn1`, the IC50 in assay [1] came to 3.9 µg/mL (≈ 14.3 µM); in assay [2], 5.62 µg/mL (≈ 20.6 µM).

With `C/C(=N\NC(N)=S)c1ccccn1`, the IC50 amounted to 0.049 µg/mL (≈ 0.252 µM) in assay [5] and 0.35 µg/mL (≈ 1.8 µM) in assay [4].

Consider `CCC/C(=N\N=C(/S)N1CCCCCC1)c1cccnn1`, for which the 50% inhibitory concentration (IC50) in assay [1] worked out at 0.088 µg/mL (≈ 0.288 µM); in assay [2], 0.098 µg/mL (≈ 0.321 µM).

On to `CC(N/N=C(\S)N1CCCCC1)c1cccnn1` (stereo not drawn), for which the concentration for half-maximal inhibition (IC50) in assay [1] was determined as 0.033 µg/mL (≈ 0.124 µM); in assay [2], 0.074 µg/mL (≈ 0.279 µM).

As to `C/C(=N\N=C(/S)N1CCCCC1)c1ccc(C)nn1`, the IC50 in assay [1] turned out to be 0.019 µg/mL (≈ 0.0685 µM); in assay [2], 0.055 µg/mL (≈ 0.198 µM).

As to `C/C(=N\N=C(/S)N1CC2CCC(CC2)C1)c1ccncn1`, the IC50 in assay [1] came to 0.047 µg/mL (≈ 0.155 µM); in assay [2] it was 0.036 µg/mL (≈ 0.119 µM).

`C/C(=N\N=C(/S)N1CC2CCC(CC2)C1)c1cnccn1`: the results for the IC50 in assay [1] and in assay [2] were 0.0054 µg/mL (≈ 0.0178 µM) and 0.0069 µg/mL (≈ 0.0227 µM), respectively.
